# Laboratory results reported in patent US20100311714A1, “1H-IMIDAZO[4,5-c]QUINOLINONE COMPOUNDS” (priority 2009, published 2010).
# Tested on: PKB Ser473 phosphorylation in Rat1-myr-HA-p110 beta cells
# Assay: Reverse protein array, PKB Ser473 phosphorylation in Rat1-myr-HA-p110 beta cells
# Format: cell-based
# Details: Rattus norvegicus, 0.5 h, 30 minutes compound incubation, read-out: p-PKB/IC50_beta
compound,measurement,value
"CNc1ccc(-c2ccc3ncc4c(c3c2)n(-c2ccc(N(C)CCOC)nc2C)c(=O)n4C)cn1 [Example 15.4, 1-{6-[(2-Methoxy-ethyl)-methyl-amino]-2-methyl-pyridin-3-yl}-3-methyl-8-(6-methylamino-pyridin-3-yl)-1,3-dihydro-imidazo[4,5-c]quinolin-2-one]",IC50,15.1 nM
"COCC(=O)Nc1ccc(-n2c(=O)n(C)c3cnc4ccc(-c5cncc(N)c5)cc4c32)c(C)n1 [Example 20.1, N-{5-[8-(5-Amino-pyridin-3-yl)-3-methyl-2-oxo-2,3-dihydro-imidazo[4,5-c]quinolin-1-yl]-6-methyl-pyridin-2-yl}-2-methoxy-acetamide]",IC50,170 nM
"CCNc1cc(-c2ccc3ncc4c(c3c2)n(-c2ccc(F)nc2C)c(=O)n4C)cnc1CO [Example 7.9, 8-(5-Ethylamino-6-hydroxymethyl-pyridin-3-yl)-1-(6-fluoro-2-methyl-pyridin-3-yl)-3-methyl-1,3-dihydro-imidazo[4,5-c]quinolin-2-one]",IC50,10 nM
"COc1ncccc1-n1c(=O)n(C)c2cnc3ccc(-c4cnc(N)c(C(F)(F)F)c4)cc3c21 [Example 1.3, 8-(6-Amino-5-trifluoromethyl-pyridin-3-yl)-1-(2-methoxy-pyridin-3-yl)-3-methyl-1,3-dihydro-imidazo[4,5-c]quinolin-2-one]",IC50,13.9 nM
"CCOc1ccc(-c2ccc3ncc4c(c3c2)n(-c2ccc(N(C)C)nc2C)c(=O)n4C)cn1 [Example 19.3, 1-(6-Dimethylamino-2-methyl-pyridin-3-yl)-8-(6-ethoxy-pyridin-3-yl)-3-methyl-1,3-dihydro-imidazo[4,5-c]quinolin-2-one]",IC50,14.2 nM
"Cc1nc(N2CC(F)(F)C2)ccc1-n1c(=O)n(C)c2cnc3ccc(-c4cncc(C(C)(C)O)c4)cc3c21 [Example 24.2, 1-[6-(3,3-Difluoro-azetidin-1-yl)-2-methyl-pyridin-3-yl]-8-[5-(1-hydroxy-1-methyl-ethyl)-pyridin-3-yl]-3-methyl-1,3-dihydro-imidazo[4,5-c]quinolin-2-one]",IC50,30.7 nM
"Cc1nc(N2CCC(O)C2)ccc1-n1c(=O)n(C)c2cnc3ccc(-c4cncc(OC(C)C)c4)cc3c21 (stereo not shown) [Example 27.1, 1-[6-(3-Hydroxy-pyrrolidin-1-yl)-2-methyl-pyridin-3-yl]-8-(5-isopropoxy-pyridin-3-yl)-3-methyl-1,3-dihydro-imidazo[4,5-c]quinolin-2-one]",IC50,85.7 nM
"Cc1cc(F)ncc1-n1c(=O)n(C)c2cnc3ccc(-c4cnc(N)c(C(F)(F)F)c4)cc3c21 [Example 16.1, 8-(6-Amino-5-trifluoromethyl-pyridin-3-yl)-1-(6-fluoro-4-methyl-pyridin-3-yl)-3-methyl-1,3-dihydro-imidazo[4,5-c]quinolin-2-one]",IC50,65.6 nM
"CNc1ccc(-c2ccc3ncc4c(c3c2)n(-c2ccc(OCCOC)nc2C)c(=O)n4C)cn1 [Example 13.3, 1-[6-(2-Methoxy-ethoxy)-2-methyl-pyridin-3-yl]-3-methyl-8-(6-methylamino-pyridin-3-yl)-1,3-dihydro-imidazo[4,5-c]quinolin-2-one]",IC50,< 4.57 nM
"CNc1cc(-c2ccc3ncc4c(c3c2)n(-c2ccc(N(C)C)nc2C)c(=O)n4C)cnc1C [Example 19.2, 1-(6-Dimethylamino-2-methyl-pyridin-3-yl)-3-methyl-8-(6-methyl-5-methylamino-pyridin-3-yl)-1,3-dihydro-imidazo[4,5-c]quinolin-2-one]",IC50,< 4.57 nM
"COc1ncccc1-n1c(=O)n(C)c2cnc3ccc(-c4cnc5c(ccn5C)c4)cc3c21 [Example 1.7, 1-(2-Methoxy-pyridin-3-yl)-3-methyl-8-(1-methyl-1H-pyrrolo[2,3-b]pyridin-5-yl)-1,3-dihydro-imidazo[4,5-c]quinolin-2-one]",IC50,29.6 nM
"COCCOc1ccc(-n2c(=O)n(C)c3cnc4ccc(-c5cnc(N)c(C(F)(F)F)c5)cc4c32)c(C)n1 [Example 13.2, 8-(6-Amino-5-trifluoromethyl-pyridin-3-yl)-1-[6-(2-methoxy-ethoxy)-2-methyl-pyridin-3-yl]-3-methyl-1,3-dihydro-imidazo[4,5-c]quinolin-2-one]",IC50,5.3 nM
"CNc1ccc(-c2ccc3ncc4c(c3c2)n(-c2ccc(N3CCCC3)nc2C)c(=O)n4C)cn1 [Example 25.1, 3-Methyl-8-(6-methylamino-pyridin-3-yl)-1-(2-methyl-6-pyrrolidin-1-yl-pyridin-3-yl)-1,3-dihydro-imidazo[4,5-c]quinolin-2-one]",IC50,10.7 nM
"COCCOc1ccc(-n2c(=O)n(C)c3cnc4ccc(-c5cnc(COC)c(OC)c5)cc4c32)c(C)n1 [Example 22.3, 1-[6-(2-Methoxy-ethoxy)-2-methyl-pyridin-3-yl]-8-(5-methoxy-6-methoxymethyl-pyridin-3-yl)-3-methyl-1,3-dihydro-imidazo[4,5-c]quinolin-2-one]",IC50,77.6 nM
"CNc1ncc(-c2ccc3ncc4c(c3c2)n(-c2ccc(F)nc2C)c(=O)n4C)cc1F [Example 7.12, 8-(5-Fluoro-6-methylamino-pyridin-3-yl)-1-(6-fluoro-2-methyl-pyridin-3-yl)-3-methyl-1,3-dihydro-imidazo[4,5-c]quinolin-2-one]",IC50,13.5 nM
"COc1nc(N2CCNCC2)ccc1-n1c(=O)n(C)c2cnc3ccc(-c4cnc(N(C)C)nc4)cc3c21 [Example 9.4, 8-(2-Dimethylamino-pyrimidin-5-yl)-1-(2-methoxy-6-piperazin-1-yl-pyridin-3-yl)-3-methyl-1,3-dihydro-imidazo[4,5-c]quinolin-2-one]",IC50,19.6 nM
"CCNc1cc(-c2ccc3ncc4c(c3c2)n(-c2cnc(F)cc2C)c(=O)n4C)cnc1C [Example 16.2, 8-(5-Ethylamino-6-methyl-pyridin-3-yl)-1-(6-fluoro-4-methyl-pyridin-3-yl)-3-methyl-1,3-dihydro-imidazo[4,5-c]quinolin-2-one]",IC50,78.3 nM
"COCCN(C)c1ccc(-n2c(=O)n(C)c3cnc4ccc(-c5cncc(N)c5)cc4c32)c(C)n1 [Example 15.8, 8-(5-Amino-pyridin-3-yl)-1-{6-[(2-methoxy-ethyl)-methyl-amino]-2-methyl-pyridin-3-yl}-3-methyl-1,3-dihydro-imidazo[4,5-c]quinolin-2-one]",IC50,23.2 nM
"COc1ccc(-n2c(=O)n(C)c3cnc4ccc(-c5cnc(CO)c(OC)c5)cc4c32)c(C)n1 [Example 11.8, 8-(6-Hydroxymethyl-5-methoxy-pyridin-3-yl)-1-(6-methoxy-2-methyl-pyridin-3-yl)-3-methyl-1,3-dihydro-imidazo[4,5-c]quinolin-2-one]",IC50,31.1 nM
"CCOc1ccc(-c2ccc3ncc4c(c3c2)n(-c2cccnc2C)c(=O)n4C)cn1 [Example 2.1, 8-(6-Ethoxy-pyridin-3-yl)-3-methyl-1-(2-methyl-pyridin-3-yl)-1,3-dihydro-imidazo[4,5-c]quinolin-2-one]",IC50,18.3 nM
"CCOc1ccc(-c2ccc3ncc4c(c3c2)n(-c2ccc(OCCOC)nc2C)c(=O)n4C)cn1 [Example 13.1, 8-(6-Ethoxy-pyridin-3-yl)-1-[6-(2-methoxy-ethoxy)-2-methyl-pyridin-3-yl]-3-methyl-1,3-dihydro-imidazo[4,5-c]quinolin-2-one]",IC50,15.7 nM
"COc1ccc(-c2ccc3ncc4c(c3c2)n(-c2cccnc2)c(=O)n4C)cc1OC [Example 5.2, 8-(3,4-Dimethoxy-phenyl)-3-methyl-1-pyridin-3-yl-1,3-dihydro-imidazo[4,5-c]quinolin-2-one]",IC50,50.3 nM
